Like-named read-outs stand apart in the source and are kept apart here.

One test concerns the target SARS CoV-2 M^pro (Severe acute respiratory syndrome coronavirus 2, UniProt P0DTD1). The test can be described thus: In vitro enzyme inhibition assay (SARS-CoV-2 main protease assay kit, fluorescence). The format is biochemical. Here is the method:
GC376 was used as a reference standard inhibitor.
Briefly, 10 µL of test compounds of different concentrations were added into a 96-well plate followed by pipetting 30 µL of the diluted protease 15 µg/mL. The mixtures were incubated for 30 min at room temperature, and then 10 µL of the substrate was dissolved in the reaction buffer and added to reach a 50-µL final volume and 40-µM final concentration. The reaction mixture was then incubated for 4 h at 20 °C followed by measuring the produced fluorescence using a TECAN spark microplate-reading fluorimeter.

For another test, the system named is SARS CoV M^pro. As to conditions: cited from earlier work.
Setting [1] is: SARS CoV-2 M^pro, fluorescence kit assay, GC376 as reference standard, read-out: IC50.

Usually IC50 stands for the midpoint of a concentration-inhibition curve. Regarding `C=C(C)[C@@H]1CC[C@]2(CO)CC[C@]3(C)[C@H](CC[C@@H]4[C@@]5(C)CC[C@H](O)C(C)(C)[C@@H]5CC[C@]43C)[C@@H]12` [betulin], the IC50 at SARS CoV-2 M^pro (setting [1]) came to 89.7 µM. Same read-out and setting: in the case of `CC1(C)CC[C@]2(C(=O)O)CC[C@]3(C)C(=CC[C@@H]4[C@@]5(C)C[C@@H](O)[C@H](O)C(C)(C)[C@@H]5CC[C@]43C)[C@@H]2C1` [maslinic acid] it was 3.22 ± 0.26 µM; in that of `C[C@H]1[C@H](C)CC[C@]2(C(=O)O)CC[C@]3(C)C(=CC[C@@H]4[C@@]5(C)CC[C@H](O)C(C)(C)[C@@H]5CC[C@]43C)[C@H]12` [ursolic acid], 12.6 ± 0.28 µM.

For the compound `C=C(C)[C@@H]1CC[C@]2(C(=O)O)CC[C@]3(C)[C@H](CC[C@@H]4[C@@]5(C)CC[C@H](O)C(C)(C)[C@@H]5CC[C@]43C)[C@@H]12` [betulinic acid], the IC50 in the test on SARS CoV M^pro is 10 µM; at SARS CoV-2 M^pro it was 14.5 ± 1.3 µM.
